According to patent publication US20060247223A1, “Non-imidazole alkylamines as histamine H3- receptor ligands and their therapeutic applications” (priority 1998, published 2006):
Structures can show the parent of a compound that is named as a salt.

SMILES	melting point
CCC(=NOC)c1ccc(OCCCN2CCCCC2C)cc1.Cl (centres unmarked)	185 to 187 °C
C[C@@H]1CCC[C@H](C)N1CCCCCOc1ccccc1.Cl	135 to 136 °C
CC1CCCN(CCCOc2ccc(C#N)cc2)C1.Cl (centres unmarked)	171 to 173 °C
CC(=O)CCc1ccc(OCCCN2CCCCC2)cc1.Cl	148 to 150 °C
CC1CCCCN1CCCOc1ccc(C#N)cc1.Cl (centres unmarked)	177 to 180 °C
CC1CCN(CCCOc2ccc(C#N)cc2)CC1 (as salt: hydrochloride) [Example 78, 1-[3-(4-cyanophenoxy)propyl]-4-methylpiperidine]	200 to 202 °C
N#Cc1ccc(OCCCN2CCCCC2)cc1F (as salt: hydrochloride) [Example 82, 1-[3-(4-cyano-3-fluorophenoxy)propyl]piperidine]	157 to 159 °C
CC1CCCCN1CCCOc1ccc(C#N)cc1 (centres unmarked) (as salt: hydrochloride) [Example 98]	151 to 153 °C
c1ccc(OCCCCCN2CCCCC2)cc1 (as salt: oxalate) [Example 1, 1-(5-phenoxypentyl)-piperidine]	143 to 145 °C
c1ccc(OCCCCCN2CCCC2)cc1 (as salt: oxalate) [Example 2, 1-(5-phenoxypentyl)-pyrrolidine]	153 to 155 °C
CCN(C)CCCCCOc1ccccc1 (as salt: oxalate) [Example 3, N-methyl-N-(5-phenoxypentyl)-ethylamine]	122 to 124 °C
c1ccc(OCCCCCN2CCCCCC2)cc1 (as salt: oxalate) [Example 5, N-(5-phenoxypentyl)-hexamethyleneimine]	132 to 134 °C
CCCN(CC)CCCCCOc1ccccc1 (as salt: oxalate) [Example 6, N-ethyl-N-(5-phenoxypentyl)-propylamine]	90 to 91 °C
CC1CCCCN1CCCCCOc1ccccc1 (centres unmarked) (as salt: oxalate) [Example 7, 1-(5-phenoxypentyl)-2-methyl-piperidine]	80 to 83 °C
CCCC1CCN(CCCCCOc2ccccc2)CC1 (as salt: oxalate) [Example 8, 1-(5-phenoxypentyl)-4-propyl-piperidine]	165 to 166 °C
CC1CCN(CCCCCOc2ccccc2)CC1 (as salt: oxalate) [Example 9, 1-(5-phenoxypentyl)-4-methyl-piperidine]	151 to 152 °C
CC(=O)N1CCN(CCCCCOc2ccccc2)CC1 (as salt: oxalate) [Example 11, 1-acetyl-4-(5-phenoxypentyl)-piperazine]	186 to 188 °C
C[C@@H]1C[C@H](C)CN(CCCCCOc2ccccc2)C1 (as salt: oxalate) [Example 13, 1-(5-phenoxypentyl)-3,5-cis-dimethyl-piperidine]	154 to 155 °C
CCOC(=O)C1CCN(CCCCCOc2ccccc2)CC1 (as salt: oxalate) [Example 15, 4-carboethoxy-1-(5-phenoxypentyl)-piperidine]	149 to 150 °C

SMILES	melting point
CCOC(=O)C1CCCN(CCCCCOc2ccccc2)C1 (centres unmarked) (as salt: oxalate) [Example 16, 3-carboethoxy-1-(5-phenoxypentyl)-piperidine]	117 to 118 °C
C1=CCN(CCCCCOc2ccccc2)CC1 (as salt: oxalate) [Example 17, 1-(5-phenoxypentyl)-1,2,3,6-tetrahydropyridine]	177 to 179 °C
Clc1ccc(OCCCCCN2CCCC2)cc1 (as salt: oxalate) [Example 19, 1-[5-(4-chlorophenoxy)-pentyl]-pyrrolidine]	139 to 141 °C
COc1ccc(OCCCCCN2CCCC2)cc1 (as salt: oxalate) [Example 20, 1-[5-(4-methoxyphenoxy)-pentyl]-pyrrolidine]	115 to 116 °C
Cc1ccc(OCCCCCN2CCCC2)cc1 (as salt: oxalate) [Example 21, 1-[5-(4-methylphenoxy)-pentyl]-pyrrolidine]	138 to 140 °C
N#Cc1ccc(OCCCCCN2CCCC2)cc1 (as salt: oxalate) [Example 22, 1-[5-(4-cyanophenoxy)-pentyl]-pyrrolidine]	129 to 130 °C
c1ccc2c(OCCCCCN3CCCC3)cccc2c1 (as salt: oxalate) [Example 24, 1-[5-(1-naphthyloxy)-pentyl]-pyrrolidine]	160 to 163 °C
Clc1cccc(OCCCCCN2CCCC2)c1 (as salt: oxalate) [Example 25, 1-[5-(3-chlorophenoxy)-pentyl]-pyrrolidine]	131 to 132 °C
c1ccc(-c2ccc(OCCCCCN3CCCC3)cc2)cc1 (as salt: oxalate) [Example 26, 1-[5-(4-phenylphenoxy)-pentyl]-pyrrolidine]	189 to 190 °C
c1cc2c(cc1OCCCCCN1CCCC1)CCCC2 (as salt: oxalate) [Example 27, 1-{5-[2-(5,6,7,8-tetrahydronaphthyl)-oxy]-pentyl}-pyrrolidine]	131 to 132 °C
c1cc2c(c(OCCCCCN3CCCC3)c1)CCCC2 (as salt: oxalate) [Example 30, 1-{5-[1-(5,6,7,8-tetrahydronaphthyl)-oxy]-pentyl}-pyrrolidine]	148 to 149 °C
c1ccc(OCCCCN2CCCC2)cc1 (as salt: oxalate) [Example 31, 1-(4-phenoxybutyl)-pyrrolidine]	143 to 144 °C
c1ccc(OCCCCCCN2CCCC2)cc1 (as salt: oxalate) [Example 32, 1-(6-phenoxyhexyl)-pyrrolidine]	146 to 147 °C
c1ccc(SCCCCCN2CCCC2)cc1 (as salt: oxalate) [Example 33, 1-(5-phenylthiopentyl)-pyrrolidine]	150 to 152 °C
c1ccc(SCCCCN2CCCC2)cc1 (as salt: oxalate) [Example 34, 1-(4-phenylthiobutyl)-pyrrolidine]	114 to 116 °C
O=[N+]([O-])c1cccc(OCCCCCN2CCCC2)c1 (as salt: oxalate) [Example 36, 1-[5-(3-nitrophenoxy)-pentyl]-pyrrolidine]	130 to 131 °C
Fc1ccc(OCCCCCN2CCCC2)cc1 (as salt: oxalate) [Example 37, 1-[5-(4-fluorophenoxy)-pentyl]-pyrrolidine]	149 to 150 °C
CC1CCCN(CCCCCOc2ccc([N+](=O)[O-])cc2)C1 (centres unmarked) (as salt: oxalate) [Example 38, 1-[5-(4-nitrophenoxy)-pentyl]-3-methyl-piperidine]	148 to 149 °C
CC(=O)c1ccc(OCCCCCN2CCCC2)cc1 (as salt: oxalate) [Example 39, 1-[5-(4-acetylphenoxy)-pentyl]-pyrrolidine]	130 to 134 °C

SMILES	melting point
Nc1ccc(OCCCCCN2CCCC2)cc1 (as salt: oxalate) [Example 40, 1-[5-(4-aminophenoxy)-pentyl]-pyrrolidine]	120 to 122 °C
N#Cc1cccc(OCCCCCN2CCCC2)c1 (as salt: oxalate) [Example 41, 1-[5-(3-cyanophenoxy)-pentyl]-pyrrolidine]	119 to 120 °C
CCN(CC)CCCOc1ccc([N+](=O)[O-])cc1 (as salt: oxalate) [Example 42, N-[3-(4-nitrophenoxy)-propyl]-diethylamine]	160 to 161 °C
CCN(CC)CCCOc1ccc(C#N)cc1 (as salt: oxalate) [Example 43, N-[3-(4-cyanophenoxy)-propyl]-diethylamine]	148 to 150 °C
O=C(c1ccccc1)c1ccc(OCCCCCN2CCCC2)cc1 (as salt: oxalate) [Example 44, 1-[5-(4-benzoylphenoxy)-pentyl]-pyrrolidine]	141 to 142 °C
O=C(Cc1ccccc1)c1ccc(OCCCCCN2CCCC2)cc1 (as salt: oxalate) [Example 45, 1-{5-[4-(phenylacetyl)-phenoxy]-pentyl}pyrrolidine]	177 to 178 °C
CCN(CC)CCCOc1ccc(C(C)=O)cc1 (as salt: oxalate) [Example 46, N-[3-(4-acetylphenoxy)-propyl]-diethylamine]	108 to 110 °C
c1ccc(Oc2ccc(OCCCCCN3CCCC3)cc2)cc1 (as salt: oxalate) [Example 48, 1-[5-(4-phenoxyphenoxy)-pentyl]-pyrrolidine]	135 to 136 °C
O=C(Nc1ccc(OCCCCCN2CCCC2)cc1)c1ccccc1 (as salt: oxalate) [Example 49, 1-[5-(4-N-benzamidophenoxy)-pentyl]-pyrrolidine]	176 to 178 °C
CC(O)c1ccc(OCCCCCN2CCCC2)cc1 (centres unmarked) (as salt: oxalate) [Example 50, 1-{5-[4-(1-hydroxyethyl)-phenoxy]-pentyl}-pyrrolidine]	102 to 104 °C
CCN(CC)CCCCCOc1ccc(C#N)cc1 (as salt: oxalate) [Example 51, 1-[5-(4-cyanophenoxy)-pentyl]-diethylamine]	120 to 122 °C
N#Cc1ccc(OCCCCCN2CCCCC2)cc1 (as salt: oxalate) [Example 52, 1-[5-(4-cyanophenoxy)-pentyl]-piperidine]	115 to 116 °C
CN(C)CCCCCOc1ccc(C#N)cc1 (as salt: oxalate) [Example 53, N-[5-(4-cyanophenoxy)-pentyl]-dimethylamine]	148 to 149 °C
CN(C)CCCOc1ccc(C#N)cc1 (as salt: oxalate) [Example 55, N-[3-(4-cyanophenoxy)-propyl]-dimethylamine]	166 to 167 °C
CCN(CC)CCCCOc1ccc(C#N)cc1 (as salt: oxalate) [Example 56, N-[4-(4-cyanophenoxy)-butyl]-diethylamine]	143 to 145 °C
N#Cc1ccc(OCCCN2CCCC2)cc1 (as salt: oxalate) [Example 58, 1-[3-(4-cyanophenoxy)-propyl]-pyrrolidine]	163 to 165 °C
N#Cc1ccc(OCCCN2CCCCC2)cc1 (as salt: oxalate) [Example 59, 1-[3-(4-cyanophenoxy)propyl]piperidine]	151 to 153 °C
N#Cc1ccc(OCCCN2CCCCCC2)cc1 (as salt: oxalate) [Example 60, N-[3-(4-cyanophenoxy)-propyl]-hexamethyleneimine]	124 to 125 °C
